{"source": "paper PMC3006207", "about": "“Phosphorylation-Dependent Protein Interaction with Trypanosoma brucei 14-3-3 Proteins that Display Atypical Target Recognition” (PLoS ONE, 2010)", "molecules": {"B1": {"name": "V5-tagged PP2c: N-terminally V5-tagged putative T. brucei protein phosphatase 2c (Tb927.7.4020) (protein)", "chain": "MYTSVRKPPLSTAKLSEKTDAAGKGNLNGVAESPTSRDGGIGSSMPYVARKPNSGDGQGRPGEVQRAGQVTYQTTNALFTGSTVPGKTKDVSTAKSSGGGDHLNNGDRPPLVGDNNEVSSPRTIKMNSSPPRRYFHRGAINCNSSENVAAVLGGSTLISGERVGSGSGYPRRVFSGPPSTRMLNQGGEEPAQKPQPPGSSRSKSGIRQLQFALNGNSSQRLLPVPPRQLCPSNPARRGGGAATVTPRCSDARRQKQDSTDPFDMTQVLNGVGTQLGLPSYCPGAESSQGSNRLRGSKPPSPSLLPLASLRSQQMPSTAGVPAPRSLSESQQLSINPSGVFGCATDCKNGLGYDFRVVASTGKSFNLPIKLTAGVGCVQGLRPTMEDEHFIRLQATTAVGQPVSLLGILDGHCGRRVAELAAKHVPDNFIAHPALGENNALAFVESIIQADRAIFHSIGKGSGGVGLSAGFGGSGGSTLIAAAVHGRMLYVACLGDARAVLYDGNTTIPMSEDHKPLNKKEHTRILQCGGFVQLGRVCGVLAVSRALGDYEFKFNGNRFISNRELMVSNVADVRQINLTDSSKFLLLACDGLWDAVQNEEATQFVRDFLSYTPDVGSSPEATKRAINNCCQKLAEFAVSRGSTDNVSVMLLFFHNVADVVASFDRASDATTSRATVTSPVSPRLFSASRGVNAGFTGMESRLAGISGGSSSGAFGGSSGAEGSSVRGAGRTKVDRGASWLTRSRSLW", "modifications": "left off: V5, N-terminal, kept"}}, "key": {"[1]": {"test_system": "heterodimeric T. brucei 14-3-3I+II", "assay": "NC-filter binding assay, heterodimeric T. brucei 14-3-3", "parameters": "species or system Trypanosoma brucei", "settings": "biotinylated peptide + streptavidine on nitrocellulose filter; GST-14-3-3 detected with α-GST antibodies", "method": "(§1) Five µl of 1 mM biotinylated peptides, purchased from Scrum (Japan) were mixed with 15 µl of streptavidine (1 mg/ml) in the presence of 0.1% Tween20, spotted on NC-filters and dried. Filters were washed with TTBS, blocked with Protein-Free Blocking Buffer (Pierce), and then incubated with GST-14-3-3 proteins in TTBS containing 20% Protein-Free Blocking Buffer and 1 mM DTT. The filters were extensively washed four times with TTBS, and detected with anti-GST antibodies."}, "GST-I K77E +II K56E": {"test_system": "GST-I K77E +II K56E", "assay": "NC-filter binding assay, mutant heterodimer", "parameters": "species or system Trypanosoma brucei", "method": "I K77E: 5′-[…]-3′, 5′-[…]-3′; and II K56E: 5′-[…]-3′, 5′-[…]-3′. The sequences were confirmed.\nas §1"}, "human 14-3-3ζ": {"test_system": "human 14-3-3ζ", "assay": "NC-filter binding assay, human 14-3-3ζ", "method": "as §1"}, "human 14-3-3τ": {"biological_target": "T1, human 14-3-3τ (Homo sapiens, UniProt P27348)", "T1 construct": "made in house", "T1 sequence (P27348 1-245)": "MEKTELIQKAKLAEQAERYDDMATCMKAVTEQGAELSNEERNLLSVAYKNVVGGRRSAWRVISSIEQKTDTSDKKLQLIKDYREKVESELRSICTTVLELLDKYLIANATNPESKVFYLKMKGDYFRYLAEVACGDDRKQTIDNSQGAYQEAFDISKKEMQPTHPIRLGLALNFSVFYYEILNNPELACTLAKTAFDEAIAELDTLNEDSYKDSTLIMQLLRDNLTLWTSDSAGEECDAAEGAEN", "assay": "Surface plasmon resonance (BIAcore), phosphopeptide vs 14-3-3τ", "assay_type": "binding", "settings": "200 nM GST-14-3-3τ; peptide 296 RU on SA5 chip; HBS-EP buffer", "method": "(§2) The surface plasmon resonance measurement was carried out using BIAcore 2000. A resonance unit value of 220 of biotinylated phosphopeptide pSRaf 259 (biotin-MAGGGRQRSTpSTPN) (mode 1 peptide) was coupled to a streptavidin-coated sensor chip (SA5, BIAcore). In the next step, 200 nM each of purified GST-14-3-3I, GST-14-3-3II, and GST–14-3-3τ, or 500 nM each of MBP-14-3-3I, MBP-14-3-3II, and MBP-14-3-3τ in HBS-EP buffer (BIAcore) was injected at a flow rate of 20 µl/min. A resonance unit value of 296 of biotinylated mode 2 peptide (biotin-MAGGGRLYHpSLP) was also coupled to SA5 and 200 nM each of GST-14-3-3I, GST-14-3-3II and GST-14-3-3τ in HBS-EP buffer, and was injected in the same manner."}, "T. brucei 14-3-3II": {"test_system": "T. brucei 14-3-3II", "assay": "Surface plasmon resonance (BIAcore), phosphopeptide vs 14-3-3II", "assay_type": "binding, Trypanosoma brucei", "settings": "200 nM GST-14-3-3II; peptide 296 RU on SA5 chip; HBS-EP buffer", "method": "as §2"}, "T. brucei 14-3-3I": {"test_system": "T. brucei 14-3-3I", "assay": "Surface plasmon resonance (BIAcore), phosphopeptide vs 14-3-3I", "assay_type": "binding, Trypanosoma brucei", "settings": "200 nM GST-14-3-3I; peptide 296 RU on SA5 chip; HBS-EP buffer", "method": "as §2"}, "T. brucei GST-II +I": {"test_system": "T. brucei GST-II +I", "assay": "Far-Western blot of immunoprecipitated V5-tagged proteins, probe GST-II +I", "assay_type": "binding, Trypanosoma brucei", "settings": "protein expressed in HEK293T cells, immunoprecipitated with anti-V5", "description": "(§3) We first examined whether a putative protein phosphatase 2c (PP2c) in the list interacts with T. brucei 14-3-3 proteins, since the phenotype of knockdown of 14-3-3I and/or II resembled that of okadaic acid, a potent serine/threonine phosphatase inhibitor, -treated T. brucei cells and PP2c has a putative mode 3 motif. The N-terminally V5-tagged PP2c protein was expressed in human HEK293T cells and purified by immunoprecipitation using anti-V5 monoclonal antibody (Ab). Far-WB probing with GST-14-3-3 proteins was used to detect the direct interaction. We have recently identified the heterodimeric form as the major form of T. brucei 14-3-3 proteins (unpublished data) and thus, recombinant heterodimeric GST-II +I was used as a probe. […] We further confirmed that the binding was mediated by intact mode 3 motif (Figure 2B).\n(§4) Figure 2 Interaction of T. brucei PP2c with T. brucei and human 14-3-3 proteins. (A) and (B) Mammalian expression vectors pCR3 N-V5-PP2c, –PP2c S744A or -C-terminal mutants of PP2c were transiently transfected to HEK293T cells. […] The filters were then incubated with indicated GST-14-3-3 proteins and detected with α-GST antibodies. […]\n(§5) Figure 3 p31-SAP binds to T. brucei 14-3-3 proteins in vivo (PCF cells). […] Immunoprecipitated proteins were analyzed by Far-WB with GST-II + I as a probe (upper panel). […]"}, "[2]": {"test_system": "endogenous 14-3-3I and II", "assay": "Co-immunoprecipitation with α-V5 Ab in T. brucei PCF cells", "assay_type": "cell-based, Trypanosoma brucei", "settings": "Tet-inducible T. brucei PCF clones; Western blot with mixture of α-I and α-II Ab", "description": "Figure 2 Interaction of T. brucei PP2c with T. brucei and human 14-3-3 proteins. (A) and (B) Mammalian expression vectors pCR3 N-V5-PP2c, –PP2c S744A or -C-terminal mutants of PP2c were transiently transfected to HEK293T cells. The cell lysates were subjected to immunoprecipitation with α-V5 Ab followed by far-Western blot analyses (Far-WB) using indicated probes (upper panel). Immunoprecipitated proteins were reprobed with α-V5 Ab (lower panel). (C) Modes 1-3 phosphopeptides summarized in Table 1 have far less affinity to T. brucei 14-3-3 than human 14-3-3ζ proteins. Indicated biotinylated phosphopeptides were mixed with streptavidine and spotted to nitrocellulose filters and dried. The filters were then incubated with indicated GST-14-3-3 proteins and detected with α-GST antibodies. (D) Tet-inducible T. brucei expression vector, pLew82 T7bsr-N-V5-PP2c was transfected and clones were isolated with blasticidin selection. Tet-uninduced (Tet−) or –induced (Tet +) cell lysates of the clone were subjected to immunoprecipitation followed by Western blotting using a mixture of α-I and II Ab (lower panel), and horseradish peroxidase (HRP)-labeled α-V5 Ab (upper panel).\nas §5"}, "human GST-14-3-3ζ": {"test_system": "human GST-14-3-3ζ", "assay": "Far-Western blot of immunoprecipitated V5-tagged proteins, probe GST-14-3-3ζ", "assay_type": "binding", "settings": "protein expressed in HEK293T cells, immunoprecipitated with anti-V5", "description": "as §3\nas §4, with “cells. The cell lysates were subjected to immunoprecipitation with α-V5 Ab followed by far-Western blot analyses (Far-WB) using indicated probes (upper panel). Immunoprecipitated proteins were reprobed with α-V5 Ab (lower panel).” for “cells.”"}}}
{"molecule": "MGGGHVSGLKRRRpSV [synthetic mode 3 phosphopeptide derived from p31-SAP]", "values": [{"measurement": "interaction with spotted phosphopeptide", "setting": "[1]", "value": "clearly detected"}, {"measurement": "binding of mutant 14-3-3 to p31-SAP derived peptide", "setting": "GST-I K77E +II K56E", "value": "prevent the binding to the p31-SAP derived peptide"}, {"measurement": "affinity to p31-SAP derived phosphopeptide, human 14-3-3ζ vs T. brucei 14-3-3", "setting": "human 14-3-3ζ; NC-filter, relative to T. brucei 14-3-3", "value": "slightly higher affinity to the p31-SAP derived phosphopeptide than T. brucei 14-3-3"}, {"measurement": "interaction with spotted phosphopeptide", "setting": "human 14-3-3ζ; biotinylated peptide + streptavidine on nitrocellulose filter, GST-14-3-3ζ detected with α-GST antibodies", "value": "interacts with both phosphopeptides but with the preferential binding to the mode 3 peptide derived from p31-SAP"}]}
{"molecule": "biotin-MAGGGRLYHpSLP [mode 2 phosphopeptide, biotinylated mode 2 peptide (biotin-…pSLP)]", "values": [{"measurement": "binding pattern of the sensorgram, mode 2", "setting": "human 14-3-3τ", "value": "bound to the mode 2 phosphopeptide"}, {"measurement": "binding pattern of the sensorgram, mode 2", "setting": "T. brucei 14-3-3II", "value": "neither GST-14-3-3I nor GST–14-3-3II showed any binding"}, {"measurement": "binding pattern of the sensorgram, mode 2", "setting": "T. brucei 14-3-3I", "value": "neither GST-14-3-3I nor GST–14-3-3II showed any binding"}]}
{"molecule": "B1", "values": [{"measurement": "direct binding by Far-WB", "setting": "T. brucei GST-II +I", "value": "to T. brucei GST-II +I (heterodimerized recombinant proteins) with lower affinity"}, {"measurement": "co-immunoprecipitation with 14-3-3I and II", "setting": "[2]", "value": "failed to show the interaction of 14-3-3 with PP2c"}, {"measurement": "direct binding by Far-WB", "setting": "human GST-14-3-3ζ", "value": "directly bound to GST-14-3-3ζ with high affinity"}]}
